In paper PMC8767159, “Multiparameter Optimization of Trypanocidal Cruzain Inhibitors With In Vivo Activity and Favorable Pharmacokinetics” (Frontiers in Pharmacology, 2022):
Where two headings read alike, the source gives them in different places.

How the values were obtained:
[1] = In vitro metabolic stability in mouse liver microsomes; assay type: in vitro ADME; conditions: mouse, liver microsomes
Method: Isolated mouse (BD Gentest, Bedford, MA) and human liver microsomes (XenoTech, Kansas City, KS) ([Plant, 2004]) were added at a final concentration of 0.25 mg/ml to a solution containing 40 mM dibasic potassium phosphate and 10 mM monobasic potassium phosphate. Stock solutions of compounds at 5 mM were prepared in 100% DMSO. A 50:50 quenching solution of acetonitrile (ACN) and methanol (MeOH) was prepared. An NADPH solution was prepared at 10 mM. The preparations containing the microsomes were added to each well of the incubation plate (450 µl), which was then heated to 37°C for 10 min. The compounds were added to the respective wells of the test plate (2 µl). Then, 300 µl of the microsome preparation was added to each well of the test plate. The test plate was heated under gentle rotation for 5 min at 37°C. Next, 90 µl of the mixture contained in the test plate was added to the incubation plate, making a final volume of 540 µl. Samples were collected at the following incubation times: 0, 5, 10, 15, 20, and 30 min. To the 0 min sample plate, quenching solution (180 µl), NADPH (6 µl), and the incubation plate mixture (54 µl) were added to each well. The sample plate was then sealed, homogenized, and stored at 4°C. Then, 54 µl of the NADPH solution was added to the incubation plate, which was homogenized. Before the collection of each sample at the established times, 45 µl of the quenching solution was added to each well of the corresponding sample plates. After reaching the incubation times, 60 µl of the mixture contained in the incubation plate was added to the corresponding sample plates. The sample plates were then sealed and stored at 4°C. After the collection of the last sample (30 min), all sample plates were centrifuged at 3,800 rpm for 30 min. The supernatant from each well was collected and transferred to clean plates for mass spectrometry. Five to 10 µl of each sample was injected into an AB Sciex Triple Quad 5500 LC-MS/MS instrument.
(§1) For the biotransformation experiments and analysis of metabolites in microsomes, an Ultra-High-Pressure Liquid Chromatography instrument (UHPLC, Thermo Accela, Waltham, MA) ([Spaggiari et al., 2014]) connected to an automatic sample injector and a 1250 series pump was used. The UHPLC system was connected to a Thermo Fisher (Waltham, MA) LTQ Orbitrap mass spectrometer. For all other analyses, an AB Sciex Triple Quad 5500 coupled to a UHPLC equipped with a UV 1290 diode detector (Agilent Technologies, Santa Clara, CA) and a CTC PAL self-collecting system (LEAP Technologies, Carrboro, NC) was used. Q1 MS positive ion mode (300–500 Da) was used to detect the ions of the parent compounds. The UV detector was operated in spectral mode (250–280 nm). A Hypersil Gold C18 (2.1 mm × 100 mm, 1.9 µm, Thermo Fisher) HPLC column was used. The mobile phases were solvent A (0.1% formic acid in water) and solvent B (0.1% formic acid in ACN). The flow was adjusted to 0.55 ml/min, and the injection volume was adjusted to […]. The gradient started with 1% solvent B for 0.4 min, reached 40% (solvent B) in 2.3 min and 95% (solvent B) in 0.67 min, was maintained for 0.5 min, and returned to the initial condition of 1%. This condition was maintained for 1 min before injection of the next sample. The peak area ratio (peak area of the test compounds/peak area of the control compounds) was converted to the percentage of remaining compound, with the 0 min time point ratio set to 100%. T½ and CLint were calculated from the percentage of remaining compound versus the incubation time. From the resulting function, the slope (k) was determined. The equations T1/2 (min) = ln(2)/k and CLint in vitro (μL/min/mg) = k*1000/0.25 were used to determine T½ and CLint.

[2] = In vivo pharmacokinetics in male CD1 mice; set-up: species or system mouse; conditions: Table S6; for CLpu: plasma clearance corrected for the fraction unbound; for clearance / C0 / AUC / half-life / Vd / Cmax / Tmax / bioavailability: male, CD1, mouse, 0.5 mg/kg, mice; for clearance: plasma clearance, read-out: CLp (L/h/kg) IV (converted); for C0 / AUC / half-life / Vd / Cmax / Tmax / bioavailability: plasma; for Vd: read-out: VSS (L/kg) IV; for bioavailability: oral bioavailability
Method: The in vivo pharmacokinetic profiles of the compounds were determined using male CD1 mice weighing […] ([Davies and Morris, 1993]; [Liu and Jia, 2007]). The compounds were administered in a single dose orally (0.5 mg/kg) and intravenously (0.5 mg/kg). Stock solutions of the compounds in DMSO were diluted in Tween 80, PEG-400, and D5W (5% dextrose in water) at a ratio of 2:5:20:73 (v/v). The injection volume was 10 ml/kg. The remaining plasma concentration was monitored over time by LC-MS/MS by collecting blood samples (40 μl) at 10, 25, and 50 min and 1, 3, 6, 9, 12, and 24 h after administration of the compound.
as §1

[3] = Parallel artificial membrane permeability assay (PAMPA); assay type: in vitro ADME; set-up: PAMPA: unit: 1e-6 cm/s; conditions: for PAMPA: unit not given
Method: The permeability of the compounds was assessed using the PAMPA method ([Yu et al., 2015]). The test compounds were dissolved in DMSO to a concentration of 5 mM. Next, the compounds were diluted in a stock plate in saline phosphate buffer (PBS), pH 6.5, containing 1% DMSO to a concentration of 1 µM. Then, 300 µl of each test compound was added to the donor plate. Afterward, 200 µl of PBS buffer, pH 7.4, was added to the acceptor plate. The donor plate was attached to the acceptor plate. The assembled acceptor-donor plate was then incubated at 37°C for 5 h under gentle agitation. To analyze the concentration of the compounds by mass spectrometry, two analysis plates (one for the donor and another for the acceptor plate) containing 300 μl of MEOH:ACN 50:50 were prepared. To the donor analysis plate, 90 µl of PBS, pH 6.5, and 10 µl of the content of the donor plate were added. For the acceptor analysis plate, 100 µl of the content of the acceptor plate was added. To monitor any potential decomposition/intrinsic instability of the test compounds in solution, samples from the stock plate were subjected to LC-MS/MS. The compounds that presented Pe ≥ 1.5 × 10^−6 cm/s were classified as permeable, while compounds that presented Pe < 1.5 × 10^−6 cm/s were considered poorly permeable or nonpermeable.

[4] = Table S5, CLint/fu, read-out: CLint_u (L/h/kg) Mouse (converted)
[5] = Table S5, read-out: CLint (L/h/kg) Mouse (converted)
[6] = IV, read-out: T1/2(h) IV (converted)
[7] = PO, read-out: T1/2 (h) PO (converted)
[8] = PAMPA, Table 3, donor pH 6.5, acceptor pH 7.4, 5 h

NC(=O)Cn1c(CCNC(=O)COc2ccccc2)nc2ccccc21 [Compound 28]
CLint scaled at 5 µM [1, 4]: 5.43 L/h/kg | CLint scaled at 5 µM [1, 5]: 5.34 L/h/kg | CLpu [2]: 3.98 L/h/kg | clearance ([2]; IV): 0.73 L/h/kg | C0 ([2]; IV): 1930 ng/mL | AUC ([2]; IV, read-out: AUC (ng*h/mL) IV): 1420 ng·h/mL | half-life [2, 6]: 0.52 h | Vd ([2]; IV): 0.43 L/kg | Cmax ([2]; PO): 275 ng/mL | Tmax ([2]; PO): 30.6 min | AUC ([2]; PO, read-out: AUC (ng*h/mL) PO): 499 ng·h/mL | half-life [2, 7]: 0.82 h | bioavailability [2]: 35% | Papp at 5 h, 1 µM [3, 8]: 0.71 ×10⁻⁶ cm/s | PAMPA ([3]; Table S5): 0.71

CC(=O)Nc1ccc(OCC(=O)NCCc2nc3ccccc3[nH]2)cc1 [Compound 2]
CLint scaled at 5 µM [1, 4]: < 4.43 L/h/kg | CLint scaled at 5 µM [1, 5]: < 4.43 L/h/kg | CLpu [2]: 4.16 L/h/kg | clearance ([2]; IV): 2.03 L/h/kg | C0 ([2]; IV): 1040 ng/mL | AUC ([2]; IV, read-out: AUC (ng*h/mL) IV): 506 ng·h/mL | half-life [2, 6]: 0.63 h | Vd ([2]; IV): 1.03 L/kg | Cmax ([2]; PO): 54 ng/mL | Tmax ([2]; PO): 49.8 min | AUC ([2]; PO, read-out: AUC (ng*h/mL) PO): 125 ng·h/mL | half-life [2, 7]: 1.21 h | bioavailability [2]: 25% | Papp at 5 h, 1 µM [3, 8]: 0.21 ×10⁻⁶ cm/s | PAMPA ([3]; Table S5): 0.21

O=C(COc1ccccc1)NCCc1nc2ccccc2n1CCOCc1ccccc1 [Compound 21]
CLint scaled at 5 µM [1, 4]: 1790 L/h/kg | CLint scaled at 5 µM [1, 5]: 847 L/h/kg | Papp at 5 h, 1 µM ([3]; Table S5, unit inferred): 3.98 ×10⁻⁶ cm/s

O=C(COc1cccc(NC(=O)CCCO)c1)NCCc1nc2ccccc2[nH]1 [Compound 7]
CLint scaled at 5 µM [1, 4]: 8.19 L/h/kg | CLint scaled at 5 µM [1, 5]: 8.19 L/h/kg | Papp at 5 h, 1 µM ([3]; Table S5, unit inferred): 0.03 ×10⁻⁶ cm/s

O=C(COc1ccc2c(C(=O)O)cccc2c1)NCCc1nc2ccccc2[nH]1 [Compound 15]
CLint scaled at 5 µM [1, 4]: 12.9 L/h/kg | CLint scaled at 5 µM [1, 5]: 12.9 L/h/kg

O=C(COc1ccccc1)NCCc1nc2ccccc2n1-c1ccccc1 [Compound 30]
CLint scaled at 5 µM [1, 4]: 1130 L/h/kg | CLint scaled at 5 µM [1, 5]: 713 L/h/kg | Papp at 5 h, 1 µM ([3]; Table S5, unit inferred): 17.8 ×10⁻⁶ cm/s

Cc1ccccc1OCC(=O)NCCc1nc2ccccc2n1CCOc1ccccc1Br [Compound 22]
CLint scaled at 5 µM [1, 5]: 487 L/h/kg | Papp at 5 h, 1 µM ([3]; Table S5, unit inferred): 0.04 ×10⁻⁶ cm/s

C=CCCn1c(CCNC(=O)COc2ccccc2)nc2ccccc21 [Compound 27]
CLint scaled at 5 µM [1, 4]: 756 L/h/kg | CLint scaled at 5 µM [1, 5]: 650 L/h/kg | Papp at 5 h, 1 µM [3, 8]: 9.06 ×10⁻⁶ cm/s | PAMPA ([3]; Table S5): 9.06

COCCn1c(CCNC(=O)COc2ccccc2)nc2ccccc21 [Compound 29]
CLint scaled at 5 µM [1, 4]: 235 L/h/kg | CLint scaled at 5 µM [1, 5]: 235 L/h/kg | Papp at 5 h, 1 µM ([3]; Table S5, unit inferred): 9.35 ×10⁻⁶ cm/s

O=C(COc1ccc(N2C(=O)CCC2=O)cc1)NCCc1nc2ccccc2[nH]1 [Compound 4]
CLint scaled at 5 µM [1, 4]: 20.9 L/h/kg | CLint scaled at 5 µM [1, 5]: 20.8 L/h/kg | Papp at 5 h, 1 µM ([3]; Table S5, unit inferred): 0.17 ×10⁻⁶ cm/s

O=C(COc1ccc(NC(=O)CCCO)cc1)NCCc1nc2ccccc2[nH]1 [Compound 5]
CLint scaled at 5 µM [1, 4]: 4.51 L/h/kg | CLint scaled at 5 µM [1, 5]: 4.43 L/h/kg | Papp at 5 h, 1 µM ([3]; Table S5, unit inferred): 0.02 ×10⁻⁶ cm/s

O=C(COc1ccccc1)NCCc1nc2ccccc2n1CCOc1ccccc1Br [Compound 19]
CLint scaled at 5 µM [1, 4]: 2580 L/h/kg | CLint scaled at 5 µM [1, 5]: 305 L/h/kg | Papp at 5 h, 1 µM ([3]; Table S5, unit inferred): 0.08 ×10⁻⁶ cm/s

O=C(COc1ccccc1Br)NCCc1nc2ccccc2n1CCOc1ccccc1Br [Compound 23]
CLint scaled at 5 µM [1, 5]: 300 L/h/kg | Papp at 5 h, 1 µM ([3]; Table S5, unit inferred): 0.08 ×10⁻⁶ cm/s

O=C(COc1ccccc1)NCCc1nc2ccccc2n1Cc1ccccc1 [Compound 26]
CLint scaled at 5 µM [1, 4]: 1010 L/h/kg | CLint scaled at 5 µM [1, 5]: 620 L/h/kg | Papp at 5 h, 1 µM [3, 8]: 8.72 ×10⁻⁶ cm/s | PAMPA ([3]; Table S5): 8.72

O=C(COc1ccccc1)NCCc1nc2ccccc2n1CCCOc1ccccc1 [Compound 24]
CLint scaled at 5 µM [1, 4]: 1850 L/h/kg | CLint scaled at 5 µM [1, 5]: 501 L/h/kg | Papp at 5 h, 1 µM [3, 8]: 2.29 ×10⁻⁶ cm/s | PAMPA ([3]; Table S5): 2.29

O=C(COc1ccccc1)NCCc1nc2ccccc2n1CCOc1ccccc1 [Compound 20]
CLint scaled at 5 µM [1, 4]: 1200 L/h/kg | CLint scaled at 5 µM [1, 5]: 489 L/h/kg | Papp at 5 h, 1 µM [3, 8]: 4.3 ×10⁻⁶ cm/s | PAMPA ([3]; Table S5): 4.30

O=C(COc1cccc(N2C(=O)CCC2=O)c1)NCCc1nc2ccccc2[nH]1 [Compound 6]
CLint scaled at 5 µM [1, 4]: 217 L/h/kg | CLint scaled at 5 µM [1, 5]: 217 L/h/kg | Papp at 5 h, 1 µM ([3]; Table S5, unit inferred): 0.2 ×10⁻⁶ cm/s

COc1ccc2cc(OCC(=O)NCCc3nc4ccccc4[nH]3)ccc2c1 [Compound 12]
CLint scaled at 5 µM [1, 4]: 1610 L/h/kg | CLint scaled at 5 µM [1, 5]: 177 L/h/kg | Papp at 5 h, 1 µM [3, 8]: 0.34 ×10⁻⁶ cm/s | PAMPA ([3]; Table S5): 0.34

Nc1cccc(OCC(=O)NCCc2nc3ccccc3[nH]2)c1 [Compound 9]
CLint scaled at 5 µM [1, 4]: 22.8 L/h/kg | CLint scaled at 5 µM [1, 5]: 22.7 L/h/kg | Papp at 5 h, 1 µM [3, 8]: 0.38 ×10⁻⁶ cm/s | PAMPA ([3]; Table S5): 0.38

Cn1c(CCNC(=O)COc2ccccc2)nc2ccccc21 [Compound 25]
CLint scaled at 5 µM [1, 4]: 123 L/h/kg | CLint scaled at 5 µM [1, 5]: 122 L/h/kg | Papp at 5 h, 1 µM [3, 8]: 1.46 ×10⁻⁶ cm/s | Papp at 5 h, 1 µM ([3]; Table S5, unit inferred): 6.55 ×10⁻⁶ cm/s
